Calls of active or inactive are those of the source. No rule for the calls is given here. Bounds are passed on as bounds.

One assay concerns the target BioA (adenosylmethionine-8-amino-7-oxononanoate aminotransferase), Mycobacterium tuberculosis. Description: Mtb BioA aminotransferase inhibitors, dose response, biochemical, plate reader, dry powder samples (AID 720592). The conditions noted are these: purified Mtb BioA enzyme, plate reader activity.
As to `Cc1cc(C)n2nc(C(=O)Nc3cccnc3)nc2n1`, the AC50 (in general, the concentration at which the activity in the assay is half-maximal) was > 20 µM (inactive).
As to `O=C(Nc1cccnc1)c1cnn2c(C(F)(F)F)cc(-c3ccccc3)nc12`, the AC50 is > 20 µM (inactive).
On the same count and under the same terms, in the case of `COc1ccc(NC(=O)N2CCN(c3ccccc3)CC2)cc1` it was > 20 µM (inactive); in that of `CC(=O)c1ccc(N2CCN(C(=O)c3cccc(Cl)c3)CC2)cc1`, > 20 µM (inactive); in that of `O=C(Nc1ccc(F)cc1)N1CCN(c2ccccc2)CC1`, > 20 µM (inactive).
As to `COc1ccc(C(=O)N2CCN(c3ccc(C(C)=O)cc3)CC2)cc1`, the AC50 is > 20 µM (inactive).
With `Cc1ccccc1/C=C(\CCC(=O)O)c1nc2ccccc2s1`, the AC50 is > 20 µM (inactive).
Still for that read-out and setting: in the case of `O=C(c1ccc2c(c1)OCO2)N1CCN(c2ccc(Cl)cc2)CC1` it was > 20 µM (inactive).

The same assay, now with this note: purified Mtb BioA enzyme, plate reader activity; at 10 µM (top of the series).
For the compound `CC(=O)c1ccc(N2CCN(Cc3ccc4c(c3)OCO4)CC2)cc1`, the inhibition entry is “inactive”.
Take `O=C(Nc1cccnc1)c1cnn2c(C(F)F)cc(C3CC3)nc12`: the inhibition result was “inactive”.
Take `CC(=O)c1ccc(N2CCN(C(=O)c3ccc4ncsc4c3)CC2)cc1`: the inhibition result was “inactive”.
For the compound `O=C(Nc1ccc2snnc2c1)N1CCN(c2ccccc2)CC1`, the inhibition entry is “inactive”.
With `O=C(Nc1ccc2snnc2c1)N1CCCCC1`, the inhibition result was “inactive”.
For `CCc1ccc(N2CCN(C(=O)c3ccc4c(c3)OCO4)CC2)cc1`, the inhibition entry is “inactive”.
In the case of `O=C(Nc1cccc(F)c1)N1CCN(c2ccccc2)CC1`, the inhibition result was “inactive”.
The same measure, in the same setting: in the case of `Cc1nc2ccc(NC(=O)N3CCN(c4ccccc4)CC3)cc2s1` it was “inactive”; in that of `Cc1ccc(NC(=O)N2CCN(c3ccccc3)CC2)cc1`, “inactive”.
Take `COc1ccc(-c2cc(C(F)(F)F)n3nc(C(=O)Nc4cccnc4)cc3n2)cc1`: the inhibition entry is “inactive”.
As to `COc1cccc(NC(=O)N2CCN(c3ccccc3)CC2)c1`, the inhibition result is “inactive”.
Still for that read-out and setting: in the case of `Cc1ccc(/C=C(\CC(=O)O)c2nc3ccccc3s2)cc1[N+](=O)[O-]` it was “inactive”; in that of `O=C(O)CC/C(=C\c1ccccc1[N+](=O)[O-])c1nc2ccccc2s1`, “inactive”.
Regarding `O=C(Nc1cccc(Cl)c1)N1CCN(c2ccccc2)CC1`, the inhibition entry is “inactive”.
As for `CC(=O)c1ccc(N2CCN(C(=O)c3ccc4c(c3)OCO4)CC2)cc1`, the inhibition entry was “inactive”.
On the same count and under the same terms, in the case of `CC(=O)c1ccc(N2CCN(C(=O)c3ccc(C)cc3)CC2)cc1` it was “inactive”.
Consider `O=C(COc1ccc2ccc(=O)oc2c1)N1CCN(c2ccc(F)cc2)CC1`, for which the inhibition result is “inactive”.
On to `COc1cccc(C(=O)N2CCN(c3ccc(C(C)=O)cc3)CC2)c1`, for which the inhibition entry was “inactive”.
For `CC(=O)c1ccc(N2CCN(C(=O)c3cccnc3)CC2)cc1`, the inhibition entry was “inactive”.
Take `CC(=O)c1ccc(N2CCN(C(=O)c3ccccc3)CC2)cc1`: the inhibition entry was “inactive”.
On to `CC(C)(C)c1ccc(C(=O)N2CCN(c3ccc4c(c3)OCO4)CC2)cc1`, for which the inhibition result is “inactive”.
Consider `O=C(Nc1ccc2[nH]ccc2c1)N1CCN(c2ccccc2)CC1`, for which the inhibition result is “inactive”.
For the compound `O=C(Nc1ccncc1)c1cc2nc(C3CC3)cc(C(F)F)n2n1`, the inhibition result was “inactive”.
For the compound `CC(=O)c1ccc(N2CCN(C(=O)c3ccc(F)cc3)CC2)cc1`, the inhibition entry was “inactive”.
`Cc1ccc(/C=C(\CCC(=O)O)c2nc3ccccc3s2)cc1[N+](=O)[O-]`: the inhibition entry is “inactive”.
Still for that read-out and setting: in the case of `CC(=O)c1ccc(N2CCN(C(=O)c3ccc(Br)cc3)CC2)c(F)c1` it was “inactive”.
With `Cc1ccc(-c2cc(C(F)(F)F)n3nc(C(=O)Nc4cccnc4)cc3n2)cc1`, the inhibition entry was “inactive”.
The same measure, in the same setting: in the case of `O=C(Nc1cccnc1)c1cc2nc(-c3cccs3)cc(C(F)(F)F)n2n1` it was “inactive”; in that of `COc1cccc(NC(=O)CCC2CCN(C(=O)c3ccc(C(C)=O)s3)CC2)c1`, “inactive”.
Turning to `O=C(c1ccc2c(c1)OCO2)N1CCN(c2ccc(F)cc2)CC1`, the inhibition result is “inactive”.
With `COc1ccc(N2CCN(C(=O)c3ccc4c(c3)OCO4)CC2)cc1`, the inhibition result is “inactive”.
With `CCN(CC)c1ccc2cc(C(=O)c3cccs3)c(=O)oc2c1`, the inhibition entry is “inactive”.
Still for that read-out and setting: in the case of `Cc1ccc(/C=C(\CCC(=O)O)c2nc3ccccc3s2)cc1` it was “inactive”; in that of `CC(=O)c1ccc(N2CCN(C(=O)c3cccc(F)c3)CC2)cc1`, “inactive”.
In the case of `COC(=O)c1c(C(=O)OC)c(-c2cccc(F)c2)n2c1CS(=O)C2` (stereo not given), the inhibition entry was “inactive”.
On the same count and under the same terms, in the case of `O=C(c1ccc2c(c1)OCO2)N1CCN(c2ccccc2)CC1` it was “inactive”; in that of `CC(=O)c1ccc(N2CCN(C(=O)c3ccc(Cl)cc3)CC2)cc1`, “inactive”.
Turning to `O=C(Nc1ccccc1)N1CCN(c2ccccc2)CC1`, the inhibition result was “inactive”.
As to `COc1cc(/C=C/C(=O)Nc2cccnc2)cc(OC)c1OC`, the inhibition result is “inactive”.
For the compound `CCOC(=O)N1CCN(C(=O)Nc2ccc3snnc3c2)CC1`, the inhibition entry is “inactive”.
Same read-out and setting: in the case of `O=C(Nc1ccc(Cl)c(-c2nc3ccccc3[nH]2)c1)c1cccnc1` it was “inactive”; in that of `CCc1ccc(C(=O)N2CCN(Cc3ccc4c(c3)OCO4)CC2)cc1`, “inactive”; in that of `CC(=O)c1ccc(N2CCN(C(=O)c3ccc4c(c3)OCCO4)CC2)cc1`, “inactive”.
On the same count and under the same terms, in the case of `O=C(Nc1ccc2snnc2c1)N1CCOCC1` it was “inactive”; in that of `O=C(Nc1ccc(Cl)cc1)c1cc2nc(C3CC3)cc(C(F)(F)F)n2n1`, “inactive”; in that of `Cc1nc2cc(NC(=O)N3CCN(c4ccccc4)CC3)ccc2o1`, “inactive”.
For `Cc1cccc(/C=C(\CCC(=O)O)c2nc3ccccc3s2)c1`, the inhibition result was “inactive”.
Turning to `Cc1cc(C)n2nc(C(=O)Nc3cccnc3)cc2n1`, the inhibition entry was “inactive”.
Consider `Cc1ccc(/C=C(\CCCC(=O)O)c2nc3ccccc3s2)cc1[N+](=O)[O-]`, for which the inhibition result was “inactive”.
For the compound `O=C(c1ccc2c(c1)OCO2)N1CCN(Cc2ccccc2)CC1`, the inhibition entry was “inactive”.
Turning to `O=C(Nc1cccnc1)N1CCN(c2ccccc2)CC1`, the inhibition result was “inactive”.
Consider `O=C(O)CC/C(=C\c1ccc([N+](=O)[O-])cc1)c1nc2ccccc2s1`, for which the inhibition entry was “inactive”.

These data come from PubChem BioAssay AID720592 (Broad Institute, 2013).
